The values that follow come from patent publication US20250186646A1, “Use of Volatile Compositions to Limit or Eliminate Perception of Fecal Malodour” (Firmenich SA, priority 2016, published 2025).

One test concerns DMTS. In words: Reduction of perceived intensity of DMTS by MOCs (Table 16). The format is in vivo. The following applies: for DMTS Dyn Conc: concentration at which the MOC reduces the perceived intensity of DMTS; for DMTS Reduction: perceived intensity of DMTS, at the Dyn Conc.
The test system of a further test is p-cresol. Nature of the test: Reduction of perceived intensity of p-cresol by MOCs (Table 16). The conditions noted are these: for p-cresol Dyn Conc: concentration at which the MOC reduces the perceived intensity of p-cresol; for p-cresol Reduction: perceived intensity of p-cresol, at the Dyn Conc. The format is in vivo.
In a further test the test system is indole. In words: Reduction of perceived intensity of indole by MOCs (Table 16). The class given is in vivo. The conditions noted are these: for Indole Dyn Conc: concentration at which the MOC reduces the perceived intensity of indole; for Indole Reduction: perceived intensity of indole, at the Dyn Conc.
For another test, the system named is butyric acid. Nature of the test: Reduction of perceived intensity of butyric acid by MOCs (Table 16). The class given is in vivo. The conditions noted are these: for Butyric acid Dyn Conc: concentration at which the MOC reduces the perceived intensity of butyric acid; for Butyric acid Reduction: perceived intensity of butyric acid, at the Dyn Conc.
The nature of test [1]: Olfactory detection thresholds (ODT). The conditions noted are these: gas phase.
Test [2] deals with fecal malodour reconstitution. Nature of the test: Olfactometer blind sensory evaluation of test and control formulations (Example 15). The format is in vivo. The following applies: for Fecal Score: in combination with fecal reconstitution; for Fecal Score left: relative to fecal reconstitution alone (100). The arrangement: Fecal Score / Freshness Score / Pleasantness Score: scale not given here. As for the experimental part: (§1) The performance of a test formulation containing LILYFLORE, Violet AT and Isoraldeine to counteract the fecal malodour perceived from a fecal malodour reconstitution was tested. The amount of each single ingredient in the test formulation was the same as the corresponding concentration of the ingredient that was incorporated into the Floral compositions. Separate control formulations were also included, comprising LILYFLORE, Violet AT and Isoraldeine separately, at the same concentration as each single ingredient in the test formulation. The sensory evaluation was blind, and performed using olfactometers and a set of more than 30 participants evaluating blind. In parallel, the headspace concentration of the ingredients from the test and three control formulations was determined.
as §1, with “of another” for “of a”, “and dihydrolinalol” for “and Isoraldeine”, “tested.” for “tested. The amount of each single ingredient in the test formulation was the same as the corresponding concentration of the ingredient that was incorporated into the Floral compositions.”
The performance of another test formulation containing LILYFLORE, isoraldeine, Violet AT and dihydrolinalol to counteract the fecal malodour perceived from a fecal malodour reconstitution was tested. Separate control formulations were also included, comprising LILYFLORE, Violet AT, isoraldeine and dihydrolinalol separately, at the same concentration as each single ingredient in the test formulation. The sensory evaluation was blind, and performed using olfactometers and a set of more than 30 participants evaluating blind. In parallel, the headspace concentration of the ingredients from the test and […] control formulations was determined.

On to “(1RS,2RS)-2,4-dimethyl-3-cyclohexene-1-carbaldehyde (A) + (1RS,2SR)-2,4-dimethyl-3-cyclohexene-1-carbaldehyde (B) [Zestover]”, for which, in the test on DMTS, the “DMTS Dyn Conc” value came out at 0.38 µg/L and the “DMTS Reduction” value was 78. Besides, in the test on p-cresol, the “p-cresol Dyn Conc” value came out at 0.0607 µg/L and the “p-cresol Reduction” value was 66. Besides, in the test with indole, the “Indole Dyn Conc” value is 0.348 µg/L and the “Indole Reduction” value is 82. In addition, in the test with butyric acid, the “Butyric acid Dyn Conc” value was 0.0809 µg/L and the “Butyric acid Reduction” value was found to be 68.
Turning to `CC(=O)OCc1ccccc1` [Benzyl acetate, Benzyl Acetate], in the test with butyric acid, the “Butyric acid Dyn Conc” value amounted to 1.31 µg/L and the “Butyric acid Reduction” value was 54.
Regarding `Cc1ccc2c(c1)CC(C)(CO)C2` (racemic) [LILYFLORE, (+−)-2,5-DIMETHYL-2-INDANMETHANOL], in the test with DMTS, the “DMTS Dyn Conc” value turned out to be 0.126 µg/L and the “DMTS Reduction” value is listed as 64. Moreover, in test [1], the “olfactory detection thresholds (ODT)” value came to 0.000128 µg/L. In addition, in test [2] (Table 18), the “Fecal % Red” value came out at 56%, the “Freshness Score” value was 4.4, the “Pleasantness Score” value was determined as 4.8 and the “Fecal Score” value is reported as 3.8. The “Fecal Score left” value in test [2] (Table 18) amounted to 44. In test [2] (Table 19), the “Fecal % Redn” value was 45%, the “Freshness Score” value is on record as 4.0, the “Pleasantness Score” value turned out to be 4.1 and the “Fecal Score” value is listed as 4.7. In addition, in test [2] (Table 19), the “Fecal Score left” value amounted to 55. Besides, in test [2] (Table 20), the “Fecal % Redn” value stood at 45%, the “Freshness Score” value was 3.9, the “Pleasantness Score” value was 3.8 and the “Fecal Score” value worked out at 4.8. Besides, in test [2] (Table 20), the “Fecal Score left” value is given as 55. Moreover, in the test on p-cresol, the “p-cresol Dyn Conc” value turned out to be 0.22 µg/L and the “p-cresol Reduction” value amounted to 76. For the same compound, in the test on indole, the “Indole Dyn Conc” value stood at 0.206 µg/L and the “Indole Reduction” value is 81. In the test with butyric acid, the “Butyric acid Dyn Conc” value was 0.0351 µg/L and the “Butyric acid Reduction” value was determined as 58.
In the case of `CCCCCC1CCCC1=O` (racemic) [Delphone, (+−)-2-pentylcyclopentanone], in the test with DMTS, the “DMTS Dyn Conc” value turned out to be 0.046 µg/L and the “DMTS Reduction” value worked out at 67. In addition, in the test on p-cresol, the “p-cresol Dyn Conc” value is 0.0488 µg/L and the “p-cresol Reduction” value is 64.
For `C/C=C/C(=O)C1C(C)=CCCC1(C)C` (racemic) [Alpha damascone, (+−)-(2E)-1-(2,6,6-trimethyl-2-cyclohexen-1-yl)-2-buten-1-one], in the test with p-cresol, the “p-cresol Dyn Conc” value was 0.0413 µg/L and the “p-cresol Reduction” value was determined as 62. For the same compound, in the test with butyric acid, the “Butyric acid Dyn Conc” value was found to be 0.041 µg/L and the “Butyric acid Reduction” value came to 43.
As to `CC(=O)OC(c1ccccc1)C(Cl)(Cl)Cl` (racemic) [Rosinol Cryst, (+−)-2,2,2-TRICHLORO-1-PHENYLETHYL ACETATE], in the test with DMTS, the “DMTS Dyn Conc” value was 0.659 µg/L and the “DMTS Reduction” value is 38.
Take “(+−)-(3E)-4-(2,6,6-trimethyl-2-cyclohexen-1-yl)-3-buten-2-one (A) + (3E)-4-(2,6,6-trimethyl-1-cyclohexen-1-yl)-3-buten-2-one (B) [Violet AT]”: in the test on DMTS, the “DMTS Dyn Conc” value amounted to 0.151 µg/L and the “DMTS Reduction” value stood at 81. The “olfactory detection thresholds (ODT)” value in test [1] was determined as 0.000508 µg/L. For the same compound, in test [2] (Table 18), the “Fecal % Red” value was determined as 58%, the “Freshness Score” value is given as 4.7, the “Pleasantness Score” value is reported as 5.0 and the “Fecal Score” value was found to be 3.6. For the same compound, the “Fecal Score left” value in test [2] (Table 18) is listed as 42. Further, in test [2] (Table 19), the “Fecal % Redn” value is reported as 53%, the “Freshness Score” value came out at 4.5, the “Pleasantness Score” value stood at 4.8 and the “Fecal Score” value was found to be 4.1. The “Fecal Score left” value in test [2] (Table 19) came to 47. Also, in test [2] (Table 20), the “Fecal % Redn” value came to 44%, the “Freshness Score” value is listed as 4.1, the “Pleasantness Score” value came out at 4.2 and the “Fecal Score” value came to 4.9. In addition, the “Fecal Score left” value in test [2] (Table 20) was determined as 56. Further, in the test on p-cresol, the “p-cresol Dyn Conc” value came out at 0.133 µg/L and the “p-cresol Reduction” value was determined as 85. Moreover, in the test with indole, the “Indole Dyn Conc” value was found to be 0.133 µg/L and the “Indole Reduction” value came out at 72. For the same compound, in the test on butyric acid, the “Butyric acid Dyn Conc” value worked out at 0.123 µg/L and the “Butyric acid Reduction” value was found to be 55.
Regarding “(+−)-(3E)-3-methyl-4-(2,6,6-trimethyl-2-cyclohexen-1-yl)-3-buten-2-one (A) + (+−)-(1E)-1-(2,6,6-trimethyl-2-cyclohexen-1-yl)-1-penten-3-one (B) [Isoraldeine 70P]”, in the test on DMTS, the “DMTS Dyn Conc” value turned out to be 0.216 µg/L and the “DMTS Reduction” value turned out to be 69. Moreover, in test [1], the “olfactory detection thresholds (ODT)” value was found to be 0.000192 µg/L. In test [2] (Table 18), the “Fecal % Red” value is 58%, the “Freshness Score” value was determined as 4.8, the “Pleasantness Score” value was found to be 5.1 and the “Fecal Score” value is 3.6. In addition, in test [2] (Table 18), the “Fecal Score left” value stood at 42. Besides, in test [2] (Table 20), the “Fecal % Redn” value is 49%, the “Freshness Score” value amounted to 4.6, the “Pleasantness Score” value is listed as 4.5 and the “Fecal Score” value was found to be 4.4. Moreover, the “Fecal Score left” value in test [2] (Table 20) is reported as 51. Also, in the test on p-cresol, the “p-cresol Dyn Conc” value worked out at 0.0674 µg/L and the “p-cresol Reduction” value is recorded as 49. In the test on indole, the “Indole Dyn Conc” value turned out to be 0.542 µg/L and the “Indole Reduction” value is reported as 79. In the test on butyric acid, the “Butyric acid Dyn Conc” value was determined as 0.0674 µg/L and the “Butyric acid Reduction” value was 25.
As to `CCCCCC/C(C=O)=C\c1ccccc1` [Hexylcinnamic aldehyde, (2E)-2-benzylideneoctanal], in the test on p-cresol, the “p-cresol Dyn Conc” value was 1.34 µg/L and the “p-cresol Reduction” value is 39. For the same compound, in the test on butyric acid, the “Butyric acid Dyn Conc” value is 1.34 µg/L and the “Butyric acid Reduction” value is reported as 26.
For `OCCc1ccccc1` [Phenylethyl alcohol, 2-PHENYLETHANOL], in the test with DMTS, the “DMTS Dyn Conc” value stood at 1.03 µg/L and the “DMTS Reduction” value is reported as 55. In the test with p-cresol, the “p-cresol Dyn Conc” value stood at 0.318 µg/L and the “p-cresol Reduction” value came out at 49. In addition, in the test on indole, the “Indole Dyn Conc” value stood at 0.538 µg/L and the “Indole Reduction” value is 46.
With `CC(C)=CCCC(C)CCO` (racemic) [Citronellol BJ, (+−)-3,7-DIMETHYL-6-OCTEN-1-OL], in the test on p-cresol, the “p-cresol Dyn Conc” value was 0.11 µg/L and the “p-cresol Reduction” value is on record as 61. In the test with indole, the “Indole Dyn Conc” value amounted to 0.252 µg/L and the “Indole Reduction” value worked out at 65. Further, in the test with butyric acid, the “Butyric acid Dyn Conc” value was 0.0947 µg/L and the “Butyric acid Reduction” value was determined as 55.
